Experimental data from patent US10039846B2, “Compositions targeting bradykinin receptor B1 for medical imaging of cancer and other disorders” (BRITISH COLUMBIA CANCER AGENCY BRANCH, priority 2012, dated 2018).
Where “and” joins values, the source holds several entries; their conditions need not be identical. Identical values can stand only once. Like-named read-outs stand apart in the source and are kept apart here. Where a SMILES comes first, the peptide text is derived from it. [ ]: non-standard residue; d: D form. The star is where a group is joined. DOTA = O=C(O)CN1CCN(CC(=O)O)CCN(CC(=O)*)CCN(CC(=O)O)CC1; Hyp = O=C(O)[C@@H]1C[C@@H](O)CN1; Cha = N[C@@H](CC1CCCCC1)C(=O)O; PEG2 = NCCOCCOCCC(=O)O

Key:
[1] = target: T1, B1R (Homo sapiens, UniProt P46663); test: Competitive binding assay with 3H radioligand on CHO-K1 cell membranes over-expressing human B1R; design: purchased Perkin Elmer Inc., Waltham, Mass; ES-091-M400UA; host or cells: CHO-K1 cells over-expressing human B1R (membrane preparation)
T1 sequence (P46663 1-353): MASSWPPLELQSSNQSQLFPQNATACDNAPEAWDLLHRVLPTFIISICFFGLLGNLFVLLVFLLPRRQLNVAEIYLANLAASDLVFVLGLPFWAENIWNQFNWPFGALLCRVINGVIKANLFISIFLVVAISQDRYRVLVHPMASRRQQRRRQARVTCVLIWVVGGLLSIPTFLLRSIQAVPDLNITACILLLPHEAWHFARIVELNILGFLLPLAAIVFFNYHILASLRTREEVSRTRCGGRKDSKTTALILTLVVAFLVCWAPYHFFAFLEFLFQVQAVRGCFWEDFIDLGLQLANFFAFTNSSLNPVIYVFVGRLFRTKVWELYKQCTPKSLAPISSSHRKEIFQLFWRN
Protocol: The ability of the peptide and small molecule B1R targeting compounds to bind to B1R was assessed in competitive binding assay as described below.
Preparation of Cell Membranes: Ready to use cell membranes (12.5 μg/μL) from CHO-K1 cells over-expressing human B1R were obtained from Perkin Elmer Inc., Waltham, Mass. (cat. no. ES-091-M400UA). Binding using cell membranes from HEK293T::GFP::hB1R (from Example 3) was also tested. In the latter case, the membranes were prepared as follows: 90% confluent cells grown in large flask, T225, were detached and pelleted in a 50 mL conical tube using centrifuge at 1,200 rpm for 5 minutes. Afterward, cells were re-suspended in 20-30 mL of cold 50 mM Tris-HCl pH 7.4. Ice cold cells were disrupted for 15 seconds at 15,000 rpm with a Polytron PT3100 (Kinematica AG, Lucerne, Switzerland). The solution was aliquoted and centrifuged at 4° C. at 17,000×g for 30 minutes. The supernatant was discarded, and then the pellet was dissolved in 1-2 mL of cold salt solution containing 50 mM Tris-HCl pH 7.4 and 100 mM NaCl and incubated for 1 hour on ice. The cell membranes were pelleted by centrifugation at 4° C. at 17,000×g for 30 minutes and resuspended in 200-600 μL of 50 mM Tris-HCl pH 7.4. The cell membrane extract was stored at −80° C. Protein concentration was determined by Bradford assay (cat. no. R1271, Fermentas, Thermo Fisher Scientific, Burlington, ON). 50 ug of cell membranes per well was used for the competitive binding assay. […] Radio-labelled control was H-3 labelled [Leu^9,des-Arg^10] kallidin obtained either from American Radiolabelled Chemicals Inc, St. Louis, Mo.
Competitive Binding Assays: Assays were performed using 96-well MultiScreenHTS with glass fiber filter and PVDF support obtained from Millipore Corp, Billerica, Mass. (cat. no. MSFB N6B, lot no. R8AN42424). Wells of the MultiScreen plate were pre-soaked with 0.5% of cold Poly(ethyleneimine) (PEI) (cat. no. P3143, Sigma-Aldrich, St. Louis, Mo.) for 30 minutes. Afterward, wells were washed once with 50 mM of Tris-HCl pH 7.4. Total volume per wells was 200 μL. A fixed concentration of the hot radioligand (1, 3, 5 or 12.5 nM depending on the radioligand; see Table 5) was incubated with progressively higher concentrations (10^−11 to 10^−4 M) of the non-radioactive competitor of interest in the presence of cell membranes (50 μg/well) and the assay buffer (50 mM Tris-HCl pH 7.4, 5 mM MgCl2). The MultiScreen plate was then incubated at 27° C. for 15 minutes with agitation at 300 rpm. The assay was stopped by suctioning the reaction solution through the bottom PVDF membrane filter and discarded. The membranes were washed 7× with 150 μL/well of cold 50 mM Tris-HCl pH 7.4. Radioactivity was counted using 1450 MicroBeta TriLux—Microplate Scintillation and Luminescence Counter (Perkin Elmer Inc., Shelton, Conn.).

[2] = in vivo; details: NODSCID IL2RKO, mouse, iv, total radioactivity
Protocol: Tumour Implantation: Imaging and biodistribution experiments were performed using NODSCID IL2RKO mice. Each cage, equipped with enrichments, contained three or four mice. The mice were maintained and the experiments were conducted in accordance with the guidelines established by Canadian Council on Animal Care and approved by Animal Ethics Committee of the University of British Columbia. Mice were housed under pathogen-free conditions and kept on twelve hour light and twelve hour dark cycle in the Animal Research Centre, British Columbia Cancer Research Centre, Vancouver, Canada.
Mice were anesthetised briefly with 2.5% isoflurane in 2.0 L/min of oxygen during cell implantation. After wiping the skin surrounding the injection site with an alcohol prep pad, a 31-Gauge needle was used to inject 10^7 HEK293T::GFP and HEK293T::hB1R cells in matrigel (1:1) on the back of the mouse. Imaging was performed once the tumour lump was visible. Tumour size was measured by CT and calculated using the ellipsoid formula: V^3mm=width×length×thickness×0.524.
PET/CT Imaging: Each tumour-bearing mouse was injected with ˜3.7 MBq of Ga-68 labelled Peptide 3 through the tail vein. The mice were imaged using the BC Cancer Agency Inveon microPET/CT scanner that has a 1.3 mm spatial resolution and a high sensitivity. Briefly, a localization CT scan was first obtained using 3 overlapping positions to cover the entire mouse. This CT scan was used for attenuation and scatter correction after segmentation for reconstructing the PET images. A dynamic acquisition was then performed for 60 minutes, with the mouse under isoflurane sedation. The animals were kept warm by a monitoring system with an integrated heating pad and physiological acquisition system. At the end of the acquisition, the mice were euthanized, and major organs were collected, weighed, and counted to determine the % injected dose per gram of tissue (% ID/g). The images were reconstructed using OSEM/3DMAP iterative reconstruction, and representative images of Ga-68 labelled Peptide 3 at 1 h post-injection are shown in FIG. 4.

[3] = test system: HEK-293 and HEK-293/BKRB1 tumours; test: Biodistribution of Ga-68 Peptide 12 in tumour-bearing mice; type: in vivo, mouse; design: Biodistribution Spleen Average / Biodistribution Liver Average / Biodistribution Adrenal glands Average / Biodistribution Kidney Average / Biodistribution Muscle Average / Biodistribution Brain Average / Biodistribution Blood Average / Biodistribution Fat Average: unit not given here; details: 1 h post-injection
Description: Peptide 12 is an […] version of Peptide 3 that was developed by substituting the C-terminal Leu residue with a D-Phe residue.

[4] = Hot 12.5 nM BK-AG-ARC, CHO-K1 membranes, individual assays, read-out: Ki
[5] = average of individual competitive binding assays, read-out: Affinity Ki (nM) Average

Cc1ccc(S(=O)(=O)N2c3ccccc3NC(=O)[C@H]2CC(=O)Nc2ccc(N3CCN(CCF)CC3)cc2)cc1 [Compound 7]
Ki [1, 4]: 113 nM and 39.5 nM and 260 nM
Ki ([1]; Hot 12.5 nM BK-ANT-ARC, CHO-K1 membranes, individual assays, read-out: Ki): 20.7 nM
Ki [1, 5]: 108 nM

CC(C)C[C@H](NC(=O)[C@@H]1CCCN1C(=O)[C@H](CO)NC(=O)[C@H](CC1CCCCC1)NC(=O)CNC(=O)[C@@H]1C[C@@H](O)CN1C(=O)[C@@H]1CCCN1C(=O)[C@H](CCCNC(=N)N)NC(=O)[C@H](CCCCN)NC(=O)CCOCCOCCNC(=O)CN1CCN(CC(=O)O)CCN(CC(=O)O)CCN(CC(=O)O)CC1)C(=O)O [Ga-68 Peptide 3, ^68Ga-DOTA-PEG2-Lys-Arg-Pro-Hyp-Gly-Cha-Ser-Pro-Leu, metal not drawn] ({DOTA-PEG2}-KRP[Hyp]G[Cha]SPL-OH)
tissue uptake at 1 h ([2]; 3.7 MBq, % ID/g Blood Average): 0.26 %ID/g
tissue uptake at 1 h ([2]; 3.7 MBq, % ID/g Bone Average): 0.34 %ID/g
tissue uptake at 1 h ([2]; 3.7 MBq, % ID/g Brain Average): 0.03 %ID/g
tissue uptake at 1 h ([2]; 3.7 MBq, % ID/g Colon Average): 0.34 %ID/g
tissue uptake at 1 h ([2]; 3.7 MBq, % ID/g Fat Average): 0.12 %ID/g
tissue uptake at 1 h ([2]; 3.7 MBq, % ID/g Heart Average): 0.19 %ID/g
tissue uptake at 1 h ([2]; 3.7 MBq, % ID/g LEFT Tumour (B1R) Average): 1.32 %ID/g
tissue uptake at 1 h ([2]; 3.7 MBq, % ID/g Left Kidney Average): 5.14 %ID/g
tissue uptake at 1 h ([2]; 3.7 MBq, % ID/g Liver Average): 0.16 %ID/g
tissue uptake at 1 h ([2]; 3.7 MBq, % ID/g Lungs Average): 0.43 %ID/g
tissue uptake at 1 h ([2]; 3.7 MBq, % ID/g Muscle Average): 0.11 %ID/g
tissue uptake at 1 h ([2]; 3.7 MBq, % ID/g Pancreas Average): 0.13 %ID/g
tissue uptake at 1 h ([2]; 3.7 MBq, % ID/g Plasma Average): 0.77 %ID/g
tissue uptake at 1 h ([2]; 3.7 MBq, % ID/g RIGHT Tumour (GFP) Average): 0.23 %ID/g
tissue uptake at 1 h ([2]; 3.7 MBq, % ID/g Right Kidney Average): 6.79 %ID/g
tissue uptake at 1 h ([2]; 3.7 MBq, % ID/g Small Intestine Average): 0.2 %ID/g
tissue uptake at 1 h ([2]; 3.7 MBq, % ID/g Spleen Average): 0.11 %ID/g
tissue uptake at 1 h ([2]; 3.7 MBq, % ID/g Stomach Average): 0.11 %ID/g
tissue uptake at 1 h ([2]; % ID/g Tail Average): 0.45 %ID/g

COc1cc(C)c(S(=O)(=O)N(C)CCOCC(=O)N2CCC(C3CCN(CCF)CC3)CC2)c(C)c1 [Compound 15]
Ki ([1]; Hot 4.5 nM BK-ANT-ARC, CHO-K1 membranes, individual assays, read-out: Ki): 0.81 nM
Ki [1, 5]: 0.81 nM

Cc1ccc(S(=O)(=O)N2c3ccccc3NC(=O)[C@H]2CC(=O)NCCc2ccc(NCCF)cc2)cc1 [Compound 6]
Ki [1, 4]: 1010 nM
Ki [1, 5]: 1010 nM

N=C(N)NCCC[C@H](NC(=O)[C@H](CCCCN)NC(=O)CCCCCNC(=O)CN1CCN(CC(=O)O)CCN(CC(=O)O)CCN(CC(=O)O)CC1)C(=O)N1CCC[C@H]1C(=O)N1C[C@H](O)C[C@H]1C(=O)NCC(=O)N[C@@H](CC1CCCCC1)C(=O)N[C@@H](CO)C(=O)N1CCC[C@H]1C(=O)N[C@H](Cc1ccccc1)C(=O)O [Ga-68 Peptide 12, ^68Ga-DOTA-Ahx-Lys-Arg-Pro-Hyp-Gly-Cha-Ser-Pro-(D-Phe), metal not drawn]
Biodistribution Adrenal glands Average ([3]; Adrenal glands): 0.001
Biodistribution Blood Average ([3]; Blood): 0.039
Biodistribution Bone Average ([3]; Bone): 0.093 %ID/g
Biodistribution Brain Average ([3]; Brain): 0.009
Biodistribution Fat Average ([3]; Fat): 0.039
Biodistribution Heart Average ([3]; Heart): 0.15 %ID/g
Biodistribution Kidney Average ([3]; Kidney): 6.436
Biodistribution Large intestine Average ([3]; Large intestine): 0.149 %ID/g
Biodistribution Left tumour Average ([3]; Left tumour): 0.194 %ID/g
Biodistribution Liver Average ([3]; Liver): 0.129
Biodistribution Lungs Average ([3]; Lungs): 0.8 %ID/g
Biodistribution Muscle Average ([3]; Muscle): 0.056
Biodistribution Pancreas Average ([3]; Pancreas): 0.069
Biodistribution Plasma Average ([3]; Plasma): 0.473 %ID/g
Biodistribution Right tumour Average ([3]; Right tumour, in %ID/g): 7.909
Biodistribution Seminal glands Average ([3]; Seminal glands): 0.23 %ID/g
Biodistribution Skin Average ([3]; Skin): 0.223 %ID/g
Biodistribution Small intestine Average ([3]; Small intestine): 0.208 %ID/g
Biodistribution Spleen Average ([3]; Spleen): 0.127
Biodistribution Tail Average ([3]; Tail): 0.226 %ID/g
Biodistribution Testes Average ([3]; Testes): 0.132 %ID/g

Cc1ccc(S(=O)(=O)N2c3ccccc3NC(=O)[C@H]2CC(=O)NCc2ccc(NCCF)cc2)cc1 [Compound 8]
Ki [1, 4]: 6920 nM
Ki [1, 5]: 6920 nM
